Laboratory results published in patent US20180220650A1, “PLANT GROWTH REGULATOR COMPOUNDS” (Syngenta Participations AG, priority 2015, published 2018).
Read-outs that look alike come from different tables or passages of the source.

What was measured:
NK Falkone corn seeds = assay: Corn seed germination under cold stress; format: in vivo; settings: 15° C.
Procedure: The effect of compounds of Formula (I) on the germination of NK Falkone corn seeds under cold stress was evaluated as follows.
NK Falkone corn seeds were sorted by size using 2 sieves, one excluding very big seeds and the other with round holes of 8 to 9 mm diameter. The seeds retained by the latter sieve were used for the germination test.
The corn seeds were placed in 24 well plates (each plate was considered as one experimental unit or replicate). Germination was initiated by the addition of 250 μl of distilled water containing 0.5% DMSO per well as a mean for compound solubilization. 8 replicates (ie, 8 plates) were used for each treatment characterization. Plates were sealed using seal foil (Polyolefin Art. Nr. 900320) from HJ-BIOANALYTIK. All plates were placed horizontally on trolleys in a climatic chamber at 15° C. or 23° C. in complete darkness. The experiment was laid out in a completely randomized design in climatic chamber with 75% Relative Humidity. Foils were pierced, one hole per well using a syringe after 72 hours for experiments performed at 15° C. and after 24 hours for experiments performed at 23° C.
Germination was followed over time by taking photographs at different time points. Image analysis was performed automatically with a macro which was developed using the Image J software. A dynamic analysis of germination was carried out by fitting a logistic curve. Three parameters were calculated from the logistic curve: the T50; the slope and the plateau. All three parameters have a high agronomical relevance and are key requirements to ensure a good early crop-establishment. The T50, slope and plateau for a selection of compounds are outlined in Table 2 below. All the values are expressed as percentages compared to an untreated control. All the three parameters are calculated considering 8 replicates and the kinetic parameters are separately determined for each germination curve. Data in bold indicate germination enhancing statistically significant differences between treated seeds and untreated control (p<0.05). • T50 corresponds to the time needed for half of the seed population to germinate. Higher negative %-values indicate faster germination. • Slope indicates how synchronous the germination of the seed population is. Positive values indicate steeper curve. The steeper the curve, the better and more uniform the germination is. • Plateau provides information about the final germination rate and it is expressed in percentage.
Positive values indicate a larger number of seeds germinated in a given period.

[1] = Hydrolytic stability assay; format: physicochemical; settings: for half-life: aqueous buffer with acetonitrile co-solvent, 40° C., read-out: Hydrolytic Stability (t1/2, hours) (converted); for loss of test compound (definitive half-life could not be determined): pH7
Procedure: The objective of the hydrolytic stability assay was to determine the chemical stability of the individual test compounds in a strictly controlled and reproducible environment allowing a comparison of their in-vitro stability under aqueous conditions at pH7 and 9. Due to low solubility of these analogues, a percentage of acentonitrile is added to the system to aid solubility (nominally 10-50%). Prior to conducting the individual assays, 1000 ppm stock solutions of all four test compounds were prepared in methanol. The reagents used in the assays were prepared as follows: 20 mM buffer solution: A stock of 20 mM mixed acetate, borate and phosphate buffer was prepared and the pH adjusted to 7 or 9 as required. Test solutions were prepared in LC vials for each test compound in the following manner: Mobile Phase Control: Mobile phase (1 ml)+compound (0.5-40 μl); Hydrolytic Stability: Buffer (1 ml)+compound (0.5-40 μl). The mobile phase and buffer were dispensed into separate glass LC vials, placed into a thermostatted autosampler set at 40° C., and allowed to equilibrate for 30 minutes prior to starting the individual assays. Reactions were initiated by addition of compound and monitored through a series of repeat injections made directly from the vial into an HPLC system at regular time intervals. Initial and subsequent measurements of peak area attributable to the test compound were used to fit exponential half-lives and calculate first-order rate constants. […] Consequently, the percent remaining was recorded at the last assessment time.

[2] = Soil stability assay (Stein clay loam soil); format: physicochemical; settings: for Soil Stability (t1/2, hours): Stein soil:sand 1:1, 0.3 μg per gram of soil, dark, 20° C.
From the text: It is highly desirable that agrochemicals applied to soil in order to deliver a beneficial biological effect can exist in the soil for a prolonged period of time with minimal degradation. However, a biologically active agrochemical compound may undergo chemical transformation in soil, leading to decreased levels of activity and a decrease in a desired biological effect. Simple laboratory degradation studies can be used to evaluate the disappearance due to biotic and abiotic processes of a compound in soil. The time taken for a compound to degrade in soil allows the estimation of their half-life (t1/2), which corresponds to the time in which 50% of the compound under evaluation is degraded in soil. […] Stock standard solutions were prepared by dissolving 1 mg of each test compound (ie, compounds (Ib-1, Ib-19 and AB01) in acetonitrile. The stock standard solutions were stored at 6° C. Working standard solutions were then obtained by a series of dilutions of the stock standard solutions for an external calibration. A treatment solution of 100 μg/mL concentration for each test compound was prepared in acetonitrile:water (6:4)(v:v). Soil samples used for this soil stability assay were collected at the Syngenta Research Centre location in Stein (Switzerland). The soil was classified as clay loam soil. Certain physical properties of the soil are described in Table 4. 2 mm sieved Stein soil was mixed with sand at ratio 1:1 prior to starting the laboratory soil degradation experiment. 10 g of the sand-soil mix (air-dried basis) was weighed into 50 ml Corning® polypropylene centrifuge tubes and soil moisture was adjusted at 45% of the field capacity. Chemical application was performed by applying 30 μl of a 100 μg/mL solution of each test compound to 10 g soil vessel corresponding to a final concentration of 0.3 μg test compound per gram of soil. Three replicates were considered for each test compound. Treated tubes were incubated in the dark at 20° C.±0.5 with 85% relative humidity. For the estimation of half-life, different sampling times of 0, 4, 8, 24, 72, 168 and 336 hours were considered. […] The half-lives were calculated by an exponential regression analysis (single first order kinetic model) plotting the percentage of recovered compound in soil against the time. […] After centrifugation at 3500 rpm for 5 minutes, an aliquot of the supernatant was collected and analyzed via UPLC-MS (Waters Acquity UPLC-MS PDA-Detection: 254 nm- and SQD-Zspray ESI, APCI, ESCi®-; Waters Acquity UPLC Column HSS T3 2.1×30 mm-1.8 μm; Gradient mobile phase with H2O:MeOH (9:1, v:v)+0.1% HCOOH (solvent A) and MeCN+0.1% HCOOH (solvent B); 30% to 100% of solvent B in 1 min, then 100% of solvent B for 0.45 min and then down to 30% solvent B at 1.5 min.; flow rate 0.75 mL·min−1).

Row | half-life ([1]; pH 7 + 25% MeCN) | half-life ([1]; pH 9 + 25% MeCN) | Soil Stability (t1/2, hours) [2] | loss of test compound (definitive half-life could not be determined) [1] | Structure (SMILES) | Plateau (% vs control) (NK Falkone corn seeds; rate 0.04 μM) | Slope (% vs control) (NK Falkone corn seeds; rate 0.04 μM) | T50 (% vs control) (NK Falkone corn seeds; rate 0.04 μM) | Plateau (% vs control) (NK Falkone corn seeds; rate 0.2 μM) | Slope (% vs control) (NK Falkone corn seeds; rate 0.2 μM) | T50 (% vs control) (NK Falkone corn seeds; rate 0.2 μM) | Plateau (% vs control) (NK Falkone corn seeds; rate 1 μM) | Slope (% vs control) (NK Falkone corn seeds; rate 1 μM) | T50 (% vs control) (NK Falkone corn seeds; rate 1 μM) | Plateau (% vs control) (NK Falkone corn seeds; rate 5 μM) | Slope (% vs control) (NK Falkone corn seeds; rate 5 μM) | T50 (% vs control) (NK Falkone corn seeds; rate 5 μM) | other results
1 | – | – | – | – | CC1=C[C@H](O/C=C2/C(=O)O[C@@H]3c4ccccc4C[C@H]23)OC1=O [GR-24] | – | – | – | – | – | – | – | – | – | – | – | – | Plateau (% vs control) (NK Falkone corn seeds; rate 0.08 μM, final germination rate): 2.10 % vs control; Slope (% vs control) (NK Falkone corn seeds; rate 0.08 μM, synchrony of germination): −8.50 % vs control; T50 (% vs control) (NK Falkone corn seeds; rate 0.08 μM, time for half of seeds to germinate): −0.10 % vs control; Plateau (% vs control) (NK Falkone corn seeds; rate 0.4 μM): 0.90 % vs control; Slope (% vs control) (NK Falkone corn seeds; rate 0.4 μM): 0.20 % vs control; T50 (% vs control) (NK Falkone corn seeds; rate 0.4 μM): −1.80 % vs control; Plateau (% vs control) (NK Falkone corn seeds; rate 2 μM): −1.40 % vs control; Slope (% vs control) (NK Falkone corn seeds; rate 2 μM): −0.80 % vs control; T50 (% vs control) (NK Falkone corn seeds; rate 2 μM): −0.50 % vs control; Plateau (% vs control) (NK Falkone corn seeds; rate 10 μM): 1.50 % vs control; Slope (% vs control) (NK Falkone corn seeds; rate 10 μM): 7.40 % vs control; T50 (% vs control) (NK Falkone corn seeds; rate 10 μM): −2.40 % vs control
2 | > 18.1 h | > 17.8 h | >720 h | – | CC1=C(C)C(O/C=C2/C(=O)O[C@]3(C)CC[C@H]4C(C)(C)CCC[C@]4(C)[C@@H]23)N(c2ccccc2)C1=O (stereo partly shown) [Ib-1] | – | – | – | – | – | – | – | – | – | – | – | – | –
3 | > 17.6 h | 19.4 h | 280 h | insufficient loss was observed | CC1=C(C)C(O/C=C2/C(=O)O[C@]3(C)CC[C@H]4C(C)(C)CCC[C@]4(C)[C@@H]23)OC1=O (stereo partly shown) [Ib-19] | 7.10 % vs control | 13.60 % vs control | −1.10 % vs control | −4.60 % vs control | 11.40 % vs control | −3.20 % vs control | 3.00 % vs control | 7.60 % vs control | 0.20 % vs control | 8.30 % vs control | 24.20 % vs control | −2.80 % vs control | hydrolytic stability compared to the prior art compound ([1]; pH9): superior hydrolytic stability; soil stability compared to prior art compound AB01 ([2]; Stein soil): superior soil stability
4 | > 17.6 h | 3 h | 38 h | insufficient loss was observed | CC1=CC(O/C=C2/C(=O)O[C@]3(C)CC[C@H]4C(C)(C)CCC[C@]4(C)[C@@H]23)OC1=O (stereo partly shown) [AB01] | −2.20 % vs control | 6.50 % vs control | −1.80 % vs control | −2.20 % vs control | 10.00 % vs control | 0.50 % vs control | 3.00 % vs control | 27.50 % vs control | −2.30 % vs control | 1.30 % vs control | 16.50 % vs control | −1.90 % vs control | –
